Reference: patent US6656911B2, “Serine protease inhibitors” (Cortech, Inc., priority 1994, dated 2003)

Biological target: T1, human neutrophil elastase (HNE) (Homo sapiens, UniProt P08246)
T1 sequence (P08246 30-267): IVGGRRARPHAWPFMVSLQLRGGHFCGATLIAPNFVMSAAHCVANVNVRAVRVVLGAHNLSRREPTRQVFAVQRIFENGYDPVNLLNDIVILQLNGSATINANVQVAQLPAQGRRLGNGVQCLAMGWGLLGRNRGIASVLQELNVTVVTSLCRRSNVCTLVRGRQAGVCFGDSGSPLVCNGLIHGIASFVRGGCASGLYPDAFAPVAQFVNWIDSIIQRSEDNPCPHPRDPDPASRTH
Experiment: HNE Ki of CE compounds, tested as described in WO 96/16080
Type: biochemical
Details: read-out: HNE Ki

| Molecule | Ki [nM] |
| --- | --- |
| CC(C)[C@H](NC(=O)CN1C(=O)CN(Cc2ccc3c(c2)OCCO3)C(=O)[C@@H]1Cc1ccccc1)C(=O)c1noc(Cc2cccc(C(F)(F)F)c2)n1 [CE2187] | 42 |
| Cc1cccc(Cc2nnc(C(=O)[C@@H](NC(=O)CN3C(=O)CN(C(=O)OCc4ccccc4)C[C@H]3Cc3ccccc3)C(C)C)o2)c1 [CE2190, [1-Benzyloxycarbonyl-5-(R)-benzylpipeazin-3-one]-N-[1-(2-[5-(3-methylbenzyl)-1,3,4-oxadiazolyl]carbonyl)-2-(S)-methylpropyl]acetamide] | 29 |
| CC(C)C(NC(=O)CN1C(=O)C(c2ccccc2)N(CCN2CCOCC2)C1=O)C(=O)c1noc(Cc2cccc(C(F)(F)F)c2)n1 [CE2193, 1-(N-Morpholinoethyl)-5-(R,S)-phenyl-2,4-imidazolidindione-N-[1-(3-[5-(3-trifluoromethylbenzyl)-1,2,4-oxadiazolyl]carbonyl)-2-(R,S)-methylpropyl]acetamide] | 36 |
| Cc1cccc(Cc2nnc(C(=O)[C@@H](NC(=O)CN(C(=O)c3ccc[nH]3)C3CCc4ccccc43)C(C)C)o2)c1 (stereo partly drawn) [CE2195, (Pyrrole-2-carbonyl)-N-[1-(R,S)-indanyl]glycyl-N-[1-(2-[5-(3-methylbenzyl)-1,3,4-oxadiazolyl]carbonyl)-2-(S)-methylpropyl]amide] | 10.6 |
| Cc1cccc(Cc2nnc(C(=O)C(NC(=O)CN3C(=O)CNCC3Cc3ccccc3)C(C)C)o2)c1 [CE2196, (6-(R)-Benzylpiperazin-2-one)-N-[1-(2-[5-(3-methylbenzyl)-1,3,4-oxadiazolyl]carbonyl)-2-(R,S)-methylpropyl]acetamide] | 96 |
| Cc1cccc(Cc2nnc(C(=O)[C@@H](NC(=O)CN3C(=O)CN(Cc4ccc5c(c4)OCCO5)C(=O)[C@H]3Cc3ccccc3)C(C)C)o2)c1 [CE2197, 4-[1-(3,4-Ethylenedioxybenzyl)-3-(R)-benzylpiperazine-2,5-dione]-N-[1-(2-[5-(3-methylbenzyl)-1,3,4-oxadiazolyl]carbonyl)-2-(S)-methylpropyl]acetamide] | 4.8 |
| CC(C)[C@H](NC(=O)CN1C(=O)NC(c2ccc(N(C)C)cc2)C1=O)C(=O)c1noc(Cc2cccc(C(F)(F)F)c2)n1 (stereo partly drawn) [CE2200, [4-(R,S)-(4-Dimethylaminophenyl)]-2,5-imidazolidinedione-N-[1-(3-[5-(3-trifluoromethylbenzyl)-1,2,4-oxadiazolyl]carbonyl)-2-(S)-methylpropyl]acetamide] | 13.7 |
| Cc1cccc(Cc2nnc(C(=O)[C@@H](NC(=O)[C@@H]3CCCN3C(=O)[C@@H](NC(=O)OC(C)C)C(C)C)C(C)C)o2)c1 [CE2202, Isopropyloxycarbonyl-L-valyl-N-[1-(2-[5-(3-methylbenzyl)-1,3,4-oxadiazolyl]carbonyl)-2-(S)-methylpropyl]-L-prolinamide] | 0.12 |
| Cc1cccc(Cc2nnc(C(=O)[C@@H](NC(=O)CN(Cc3ccccc3)C(=O)Cc3ccccc3)C(C)C)o2)c1 [CE2210, (N-Benzylcarbonyl)-N-(benzyl)glycyl-N-[1-(2-[5-(3-methylbenzyl)-1,3,4,-oxadiazolyl]carbonyl)-2-(S)-methylpropyl]amide] | 22.7 |
| Cc1cccc(Cc2nnc(C(=O)[C@@H](NC(=O)CN3CCC(n4c(=O)[nH]c5ccccc54)CC3)C(C)C)o2)c1 [CE2212, 3-[1-(4-Piperidine)]-benzimidazolidin-2-one-N-[1-(2-[5-(3-methylbenzyl)-1,3,4-oxadiazolyl]carbonyl)-2-(S)-methylpropyl]acetamide] | 124 |
| CC(C)[C@H](NC(=O)CN1Cc2ccccc2NC1=O)C(=O)c1noc(Cc2cccc(C(F)(F)F)c2)n1 [CE2219, 1,4-Quinazolin-2-one-N-[1-(3-[5-(3-trifluoromethylbenzyl)-1,2,4-oxadiazolyl]carbonyl)-2-(S)-methylpropyl]acetamide] | 537 |
| Cc1cccc(Cc2nc(C(=O)C(NC(=O)CN3C(=O)C(N)N=C(c4ccccc4)c4ccccc43)C(C)C)no2)c1 [CE2221, (R,S)-3-Amino-2-oxo-5-phenyl-1,4-benzodiazepine-N-[1-(3-[5-(3-methylbenzyl)-1,2,4-oxadiazolyl]carbonyl)-2-(R,S)-methylpropyl]acetamide] | 34 |
| CC(C)[C@H](NC(=O)Cn1c(-c2ccc(F)cc2)ccc(N)c1=O)C(=O)c1nnc(Cc2ccc3c(c2)OCO3)o1 [CE2261] | 0.36 |
| Cc1cccc(Cc2nnc(C(=O)[C@@H](NC(=O)Cn3c(-c4cccnc4)ncc(N)c3=O)C(C)C)o2)c1 [CE2263, 2-[5-Amino-6-oxo-2-(3-pyridyl)-1,6-dihydro-1-pyrimidinyl]-N-[1-(2-[5-(3-methylbenzyl)-1,3,4-oxadiazolyl]carbonyl)-2-(S)-methylpropyl]acetamide] | 0.67 |

The next lines start with the values.

| Ki [nM] | Molecule |
| --- | --- |
| 0.27 | CC(C)[C@H](NC(=O)[C@@H]1CCCN1C(=O)[C@@H](NC(=O)OCc1ccncc1)C(C)C)C(=O)c1noc(Cc2cccc(C(F)(F)F)c2)n1 [CE2185, 4-Pyridylmethyleneoxycarbonyl-L-valyl-N-[1-(3-[5-(3-trifluoromethylbenzyl)-1,2,4-oxadiazolyl]carbonyl)-2-(S)-methylpropyl]-L-prolinamide] |
| 0.037 | Cc1cccc(Cc2nnc(C(=O)[C@@H](NC(=O)[C@@H]3CCCN3C(=O)[C@@H](NC(=O)OCc3ccncc3)C(C)C)C(C)C)o2)c1 [CE2186, 4-Pyridylmethyleneoxycarbonyl -L-valyl-N-[1-(2-[5-(3-methylbenzyl)-1,3,4-oxadiazolyl]carbonyl)-2-(S)-methylpropyl]-L-prolinamide] |
| 99 | CC(C)[C@H](NC(=O)CN1C(=O)CN(Cc2ccccc2)C1=O)C(=O)c1noc(Cc2cccc(C(F)(F)F)c2)n1 [CE2189, 1-Benzyl-2,4-imidazolidinedione-N-[1-(3-[5-(3-trifluoromethylbenzyl)-1,2,4-oxadiazolyl]carbonyl)-2-(S)-methylpropyl]acetamide] |
| 3.1 | CC(C)[C@H](NC(=O)CN1C(=O)NC(c2ccccc2)C1=O)C(=O)c1noc(Cc2cccc(C(F)(F)F)c2)n1 (stereo partly drawn) [CE2198, 4-(R,S)-Phenyl-2,5-imidazolidinedione-N-[1-(3-[5-(3-trifluoromethylbenzyl)-1,2,4-oxadiazolyl]carbonyl)-2-(S)-methylpropyl]acetamide] |
| 40 | Cc1cccc(Cc2nnc(C(=O)C(NC(=O)CN3CC(=O)NC[C@H]3c3ccccc3)C(C)C)o2)c1 (stereo partly drawn) [CE2208, (2-(R)-Phenylpiperazin-5-one)-N-[1-(2-[5-(3-methylbenzyl)-1,3,4-oxadiazolyl]carbonyl)-2-(R,S)-methylpropyl]acetamide] |
| 52 | Cc1cccc(Cc2nc(C(=O)C(NC(=O)[C@@H]3Cc4cccc5c4N3C(=O)[C@@H](N)CC5)C(C)C)no2)c1 (stereo partly drawn) [CE2220, (2S,5S)-5-Amino-1,2,4,5,6,7-hexahydroazepino-[3.2.1]-indole-4-one-carbonyl-N-[1-(3-[5-(3-methylbenzyl)-1,2,4-oxadiazolyl]carbonyl)-2-(R,S)-methylpropyl]amide] |
| 0.42 | Cc1cccc(Cc2nnc(C(=O)[C@@H](NC(=O)Cn3c(-c4cccs4)ncc(N)c3=O)C(C)C)o2)c1 [CE2262, 2-[5-Amino-6-oxo-2-thiophenyl-1,6-dihydro-1-pyrimidinyl]-N-[1-(2-[5-(3-methylbenzyl)-1,3,4-oxadiazolyl]carbonyl)-2-(S)-methylpropyl]acetamide] |
| 0.033 | (Benzyloxycarbonyl)-L-valyl-N-[1-(2-[5-(1-napthylenyl)-1,3,4-xadiazolyl]carbonyl)-2-(S)-methylpropyl]-L-prolinamide [CE2124] |
